Experimental findings from ChEMBL document CHEMBL1201862, “PubChem BioAssay data set” (2004) are described below.

What is called IC50 is the midpoint of a concentration-inhibition curve. Broadly, the AC50 is the concentration at which the activity in the assay is half-maximal. By EC50 is commonly meant the midpoint of the concentration-response curve.

One assay addresses T1, Aminopeptidase N (Plasmodium falciparum FcB1/Columbia, UniProt O96935).
T1 sequence (O96935 whole entry): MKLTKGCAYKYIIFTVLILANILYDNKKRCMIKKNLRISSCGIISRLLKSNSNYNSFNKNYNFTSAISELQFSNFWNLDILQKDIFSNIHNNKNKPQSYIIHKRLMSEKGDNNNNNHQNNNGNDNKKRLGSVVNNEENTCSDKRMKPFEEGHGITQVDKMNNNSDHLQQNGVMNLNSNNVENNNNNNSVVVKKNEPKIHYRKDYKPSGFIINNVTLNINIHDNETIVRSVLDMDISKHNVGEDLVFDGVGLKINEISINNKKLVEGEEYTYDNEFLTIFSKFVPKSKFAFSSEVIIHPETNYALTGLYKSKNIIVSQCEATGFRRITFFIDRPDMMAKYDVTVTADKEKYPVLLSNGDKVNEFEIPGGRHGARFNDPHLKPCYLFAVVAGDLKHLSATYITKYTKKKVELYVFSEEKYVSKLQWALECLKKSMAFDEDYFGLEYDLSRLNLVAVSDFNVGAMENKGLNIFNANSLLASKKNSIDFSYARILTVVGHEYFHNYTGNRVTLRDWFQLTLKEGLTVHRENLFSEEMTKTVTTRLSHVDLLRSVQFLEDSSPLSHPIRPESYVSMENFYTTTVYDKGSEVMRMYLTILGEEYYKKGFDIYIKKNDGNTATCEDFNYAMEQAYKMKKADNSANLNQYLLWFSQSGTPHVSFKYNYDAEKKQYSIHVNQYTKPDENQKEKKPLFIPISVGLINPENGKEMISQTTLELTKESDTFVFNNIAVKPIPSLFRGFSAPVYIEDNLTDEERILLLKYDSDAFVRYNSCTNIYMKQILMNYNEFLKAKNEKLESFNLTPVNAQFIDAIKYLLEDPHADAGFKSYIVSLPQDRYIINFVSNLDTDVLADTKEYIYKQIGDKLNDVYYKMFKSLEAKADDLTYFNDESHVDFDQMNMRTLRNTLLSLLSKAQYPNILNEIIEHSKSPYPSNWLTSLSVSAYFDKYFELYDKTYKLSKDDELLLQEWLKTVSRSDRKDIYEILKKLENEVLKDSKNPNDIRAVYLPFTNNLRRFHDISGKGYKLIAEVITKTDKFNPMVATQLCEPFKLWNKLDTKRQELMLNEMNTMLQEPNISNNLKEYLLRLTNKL
Kind of assay: malaria alanyl aminopeptidase activity blockers – biochemical, fluorogenic H-Leu-NHMec substrate, 1536-well (AID 1445). More on the design: species or system Plasmodium falciparum 3D7, 3D7.

The target of assay [1] is T2, Dual specificity protein phosphatase 3 (Homo sapiens, UniProt P51452). Kind of assay: VHR1 phosphatase inhibitors, primary screen, biochemical, absorbance, uHTS (AID 1654).
T2 sequence (P51452 whole entry): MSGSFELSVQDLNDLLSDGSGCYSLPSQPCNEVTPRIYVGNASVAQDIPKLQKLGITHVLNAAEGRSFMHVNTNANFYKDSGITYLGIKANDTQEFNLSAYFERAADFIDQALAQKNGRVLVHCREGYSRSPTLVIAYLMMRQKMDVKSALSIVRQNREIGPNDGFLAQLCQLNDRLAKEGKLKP
Assay [2] has as its target T2, Dual specificity protein phosphatase 3. Kind of assay: VHR1 phosphatase inhibitors, biochemical (AID 1878).
The target in assay [3] is T3, Dual specificity protein phosphatase 6 (Rattus norvegicus, UniProt Q64346). Kind of assay: inhibition of rat DUSP6 enzyme activity – biochemical, in vitro, primary screen (AID 425).
T3 sequence (Q64346 whole entry): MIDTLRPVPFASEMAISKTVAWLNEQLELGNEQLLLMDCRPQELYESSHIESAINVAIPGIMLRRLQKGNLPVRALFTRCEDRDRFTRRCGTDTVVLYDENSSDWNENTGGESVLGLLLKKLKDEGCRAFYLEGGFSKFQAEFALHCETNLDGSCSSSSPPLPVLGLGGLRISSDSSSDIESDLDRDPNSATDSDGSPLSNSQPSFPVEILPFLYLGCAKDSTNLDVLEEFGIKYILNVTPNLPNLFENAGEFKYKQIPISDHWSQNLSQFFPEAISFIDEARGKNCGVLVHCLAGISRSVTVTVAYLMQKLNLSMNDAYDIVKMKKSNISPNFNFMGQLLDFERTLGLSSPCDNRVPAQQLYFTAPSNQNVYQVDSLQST
Assay [4] concerns the target T2, Dual specificity protein phosphatase 3. Kind of assay: SAR VHR1 absorbance Assay for In Vitro dose response studies. [Related pubchem assays (depositor defined):AID1654, AID1661, AID1878, AID1992, AID2004].
For assay [5] the target is unchanged. Kind of assay: SAR VHR1 Fluorescent Assay for In Vitro dose response studies. [Related pubchem assays (depositor defined):AID1654, AID1661, AID1878, AID1992, AID2004, AID2070, AID2085]. In kind it is functional.
Assay [6] has as its target T4, Tyrosine-protein phosphatase non-receptor type 7 (Homo sapiens, UniProt P35236).
T4 sequence (P35236 whole entry): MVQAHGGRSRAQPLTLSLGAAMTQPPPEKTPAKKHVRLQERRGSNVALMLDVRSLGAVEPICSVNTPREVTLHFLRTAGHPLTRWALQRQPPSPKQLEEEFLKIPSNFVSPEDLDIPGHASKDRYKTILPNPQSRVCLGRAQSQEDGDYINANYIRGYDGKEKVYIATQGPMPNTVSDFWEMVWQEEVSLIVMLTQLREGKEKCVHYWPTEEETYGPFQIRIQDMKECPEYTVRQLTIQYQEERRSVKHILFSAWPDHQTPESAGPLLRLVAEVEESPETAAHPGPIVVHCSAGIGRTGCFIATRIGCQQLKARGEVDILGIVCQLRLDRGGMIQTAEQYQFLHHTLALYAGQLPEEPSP
Kind of assay: redox-active compounds inhibiting HePTP phosphatase – biochemical, fluorescence, mechanism study (AID 2068). In kind it is functional.

Assay [7] has as its target T3, Dual specificity protein phosphatase 6. In kind it is functional.
A further assay concerns the target Genome polyprotein (dengue virus type 2, UniProt P29990). Kind of assay: flavivirus cap methylation enzyme inhibition – biochemical, confirmation dose response, primary screen (AID 588689). In kind it is functional.
In assay [8] the target is DNA (cytosine-5)-methyltransferase 1 (Homo sapiens, UniProt P26358). Kind of assay: inhibition of DNA methylation by DNMT1 – biochemical, fluorescent molecular beacon, confirmation (AID 602386). In kind it is functional.
DNA (cytosine-5)-methyltransferase 1, sequence (P26358 whole entry): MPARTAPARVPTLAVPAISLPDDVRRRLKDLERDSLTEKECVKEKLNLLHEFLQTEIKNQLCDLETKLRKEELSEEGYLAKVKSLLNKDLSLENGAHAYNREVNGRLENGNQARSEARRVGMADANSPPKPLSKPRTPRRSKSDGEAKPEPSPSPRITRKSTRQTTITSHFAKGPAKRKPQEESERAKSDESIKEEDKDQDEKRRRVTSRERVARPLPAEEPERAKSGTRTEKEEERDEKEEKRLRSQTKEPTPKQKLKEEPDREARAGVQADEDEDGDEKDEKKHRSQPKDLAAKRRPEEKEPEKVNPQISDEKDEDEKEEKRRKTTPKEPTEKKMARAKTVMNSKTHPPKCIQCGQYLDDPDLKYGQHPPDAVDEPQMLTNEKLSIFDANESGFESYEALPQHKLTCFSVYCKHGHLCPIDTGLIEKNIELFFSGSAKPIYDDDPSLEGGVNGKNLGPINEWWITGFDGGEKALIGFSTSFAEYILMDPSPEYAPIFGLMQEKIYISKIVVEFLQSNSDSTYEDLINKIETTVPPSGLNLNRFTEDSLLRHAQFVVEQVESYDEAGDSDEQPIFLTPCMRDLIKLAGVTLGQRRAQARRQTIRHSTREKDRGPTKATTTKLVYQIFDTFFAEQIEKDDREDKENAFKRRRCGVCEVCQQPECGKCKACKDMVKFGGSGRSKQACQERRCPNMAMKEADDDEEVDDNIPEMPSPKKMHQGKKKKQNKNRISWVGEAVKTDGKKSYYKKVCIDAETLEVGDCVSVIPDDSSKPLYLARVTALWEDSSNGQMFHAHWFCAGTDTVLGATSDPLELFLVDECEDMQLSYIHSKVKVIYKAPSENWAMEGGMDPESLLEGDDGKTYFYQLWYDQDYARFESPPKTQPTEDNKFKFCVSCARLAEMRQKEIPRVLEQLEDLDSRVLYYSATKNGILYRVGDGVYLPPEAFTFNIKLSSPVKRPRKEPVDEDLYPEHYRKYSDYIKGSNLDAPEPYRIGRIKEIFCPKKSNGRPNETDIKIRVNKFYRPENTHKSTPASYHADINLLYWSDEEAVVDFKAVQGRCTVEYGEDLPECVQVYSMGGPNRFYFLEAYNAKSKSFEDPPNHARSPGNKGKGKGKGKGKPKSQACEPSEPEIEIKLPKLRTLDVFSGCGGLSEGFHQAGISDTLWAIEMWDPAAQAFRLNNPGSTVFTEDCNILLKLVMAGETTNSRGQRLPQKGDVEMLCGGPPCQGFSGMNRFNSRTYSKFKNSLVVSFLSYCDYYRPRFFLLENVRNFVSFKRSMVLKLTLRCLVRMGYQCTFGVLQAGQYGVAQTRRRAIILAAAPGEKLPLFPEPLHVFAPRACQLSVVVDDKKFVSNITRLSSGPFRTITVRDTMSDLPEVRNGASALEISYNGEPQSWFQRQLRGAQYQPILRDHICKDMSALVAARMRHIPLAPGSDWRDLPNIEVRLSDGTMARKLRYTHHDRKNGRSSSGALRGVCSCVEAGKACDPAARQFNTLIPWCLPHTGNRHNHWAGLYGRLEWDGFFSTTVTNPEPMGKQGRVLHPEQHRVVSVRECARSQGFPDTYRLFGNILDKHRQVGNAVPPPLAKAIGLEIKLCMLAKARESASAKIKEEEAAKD
Assay [9] deals with NAD-dependent protein deacylase sirtuin-5, mitochondrial (Homo sapiens, UniProt Q9NXA8). Kind of assay: sirtuin-5 deacylation blockers, concentration series – biochemical, fluorescence imaging, cherry-pick, set 5, dose response (AID 720591).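 Note: desuccinylation of succinyl peptide AMC substrate read as fluorescence after trypsin release; potency of inhibitors that lower fluorescence and may act on trypsin instead.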
NAD-dependent protein deacylase sirtuin-5, mitochondrial, sequence (Q9NXA8 whole entry): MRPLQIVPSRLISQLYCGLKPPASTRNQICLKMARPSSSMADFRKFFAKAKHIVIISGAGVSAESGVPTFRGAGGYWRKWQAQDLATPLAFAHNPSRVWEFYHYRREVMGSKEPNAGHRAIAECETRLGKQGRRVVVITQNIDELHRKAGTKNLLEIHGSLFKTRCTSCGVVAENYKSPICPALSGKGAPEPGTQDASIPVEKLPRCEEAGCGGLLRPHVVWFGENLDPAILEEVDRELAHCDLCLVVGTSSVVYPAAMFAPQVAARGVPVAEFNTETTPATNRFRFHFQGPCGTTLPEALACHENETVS
Another assay relates to Jurkat. Kind of assay: blockers of NF-kB activation in T cells – Jurkat, luciferase reporter, luminescence, B- and T-cell, dose response (AID 489004).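 Note: NF-kB luciferase reporter Jurkat cells stimulated with PMA plus ionomycin.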 The settings on record: Homo sapiens. In kind it is functional, cell-based.
The nature of assay [10]: HEK-293T viability loss, compound-treated – cell-based, uHTS hits, cytotoxicity control for B/T-cell NF-kB inhibitor project, dose response (AID 489019).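 Note: IC50 reflects cytotoxicity as loss of cell viability.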 In kind it is functional.
For assay [11], the target named is T5, Microphthalmia-associated transcription factor (Homo sapiens, UniProt O75030).
T5 sequence (O75030 whole entry): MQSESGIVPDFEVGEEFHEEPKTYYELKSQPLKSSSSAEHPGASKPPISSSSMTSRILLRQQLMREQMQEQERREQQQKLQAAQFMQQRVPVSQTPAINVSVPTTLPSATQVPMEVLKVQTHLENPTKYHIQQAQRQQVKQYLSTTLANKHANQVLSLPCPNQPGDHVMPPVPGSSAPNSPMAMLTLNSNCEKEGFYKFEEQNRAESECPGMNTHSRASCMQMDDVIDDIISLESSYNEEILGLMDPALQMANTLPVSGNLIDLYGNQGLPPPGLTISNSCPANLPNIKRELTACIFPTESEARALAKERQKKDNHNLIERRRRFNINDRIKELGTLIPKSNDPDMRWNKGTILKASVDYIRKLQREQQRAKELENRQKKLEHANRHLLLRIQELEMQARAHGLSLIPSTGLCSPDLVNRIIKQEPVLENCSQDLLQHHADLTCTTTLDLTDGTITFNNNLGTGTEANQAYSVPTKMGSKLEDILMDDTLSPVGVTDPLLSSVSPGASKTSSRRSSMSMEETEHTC
Kind of assay: reducers of TRPM1 reporter luminescence, concentration series – cell-based, SK-MEL-5, cherry-picked, set 3, MITF inhibitor project, dose response (AID 493073).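 Note: SK-MEL-5 melanoma cells with luciferase driven by the MITF target TRPM1 promoter.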 In kind it is functional.

Assay [12] deals with A-375. Kind of assay: MITF: Counter assay: A375 proliferation Measured in Cell-Based System Using Plate Reader - 2084-03_Inhibitor_Dose_DryPowder_Activity. [Related pubchem assays (depositor defined):AID488944]. In kind it is functional. The settings on record: Homo sapiens.
Assay [13] relates to A-375. Kind of assay: proliferation inhibition in MITF-low A375 cells – cell-based, cherry-pick samples, set 2, counter-screen for MITF modulator project, dose response (AID 540335). The settings on record: Homo sapiens. In kind it is functional.
Assay [14] concerns the target Voltage-gated inwardly rectifying potassium channel KCNH2 (Homo sapiens, UniProt Q12809). Kind of assay: concentration-dependent hERG rescue from blockers – cell-based, thallium flux, dose response (AID 2121). In kind it is ADME. On the technique in general: hERG is a cardiac potassium channel; its block is linked to QT prolongation.
The next assay has as its system HEK293. Kind of assay: EBV LMP1 TES2 canonical NF-kB signalling blockers – cell-based, HEK293, luciferase, cherry-pick, dose response (AID 588343). In kind it is functional. The settings on record: Homo sapiens.
The target in assay [15] is Delta-type opioid receptor (Homo sapiens, UniProt P41143). Kind of assay: Counterscreen for agonists of heterodimerization of the mu 1 (OPRM1) and delta 1 (OPRD1) opioid receptors: Luminescence-based cell-based high throughput dose response assay to identify agonists of OPRD1 homodimerization. [Related pubchem assays (depositor defined):AID504326, AID504355, AID504692, AID504904, AID504905]. In kind it is functional. In general terms: Counterscreens check selectivity or assay interference.
Delta-type opioid receptor, sequence (P41143 whole entry): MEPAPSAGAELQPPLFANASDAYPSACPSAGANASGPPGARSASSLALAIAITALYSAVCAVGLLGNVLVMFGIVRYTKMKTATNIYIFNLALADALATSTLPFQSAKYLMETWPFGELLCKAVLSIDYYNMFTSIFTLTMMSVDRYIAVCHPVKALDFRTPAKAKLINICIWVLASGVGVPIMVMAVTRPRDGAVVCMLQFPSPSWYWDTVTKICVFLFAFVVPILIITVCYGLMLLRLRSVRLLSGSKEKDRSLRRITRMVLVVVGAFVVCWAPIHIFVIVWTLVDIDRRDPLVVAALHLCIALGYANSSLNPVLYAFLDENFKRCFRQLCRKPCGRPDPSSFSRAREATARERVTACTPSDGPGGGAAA

The next assay deals with Mu-type opioid receptor (Homo sapiens, UniProt P35372). Kind of assay: Counterscreen for agonists of heterodimerization of the mu 1 (OPRM1) and delta 1 (OPRD1) opioid receptors: Luminescence-based cell-based high throughput dose response assay to identify agonists of OPRM1 homodimerization. In kind it is functional.
Mu-type opioid receptor, sequence (P35372 whole entry): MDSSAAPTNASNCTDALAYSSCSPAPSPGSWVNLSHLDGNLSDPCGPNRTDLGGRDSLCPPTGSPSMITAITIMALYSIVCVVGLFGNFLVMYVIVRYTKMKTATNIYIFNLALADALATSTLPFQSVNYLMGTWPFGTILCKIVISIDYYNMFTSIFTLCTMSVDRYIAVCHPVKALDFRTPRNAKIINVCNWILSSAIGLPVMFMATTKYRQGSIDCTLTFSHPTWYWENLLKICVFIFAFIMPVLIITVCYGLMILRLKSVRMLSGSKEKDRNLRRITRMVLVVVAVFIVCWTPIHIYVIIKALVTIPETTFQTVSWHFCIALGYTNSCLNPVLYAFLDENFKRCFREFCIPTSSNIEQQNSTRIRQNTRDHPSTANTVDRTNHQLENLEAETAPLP
Assay [16] concerns the target 5-hydroxytryptamine receptor 5A (Homo sapiens, UniProt P47898). Kind of assay: Counterscreen for agonists of OPRM1-OPRD1 heterodimerization: luminescence-based cell-based high throughput dose response assay to identify agonists of 5-hydroxytryptamine (serotonin) 5A receptor (HTR5A). [Related pubchem assays (depositor defined):AID504326, AID504355, AID504692, AID504904, AID504905]. In kind it is functional.

Calls of active or inactive are those of the source.

5-hydroxytryptamine receptor 5A, sequence (P47898 whole entry): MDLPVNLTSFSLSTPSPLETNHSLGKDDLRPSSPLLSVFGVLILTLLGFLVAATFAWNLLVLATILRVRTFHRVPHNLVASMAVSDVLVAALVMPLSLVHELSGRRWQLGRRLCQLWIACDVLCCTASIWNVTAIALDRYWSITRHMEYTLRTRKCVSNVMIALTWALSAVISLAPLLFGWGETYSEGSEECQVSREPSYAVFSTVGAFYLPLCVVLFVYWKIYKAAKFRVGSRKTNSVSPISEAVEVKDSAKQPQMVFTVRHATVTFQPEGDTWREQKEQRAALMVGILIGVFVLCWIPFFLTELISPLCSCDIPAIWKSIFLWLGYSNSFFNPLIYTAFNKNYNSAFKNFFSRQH
Voltage-gated inwardly rectifying potassium channel KCNH2, sequence (Q12809 whole entry): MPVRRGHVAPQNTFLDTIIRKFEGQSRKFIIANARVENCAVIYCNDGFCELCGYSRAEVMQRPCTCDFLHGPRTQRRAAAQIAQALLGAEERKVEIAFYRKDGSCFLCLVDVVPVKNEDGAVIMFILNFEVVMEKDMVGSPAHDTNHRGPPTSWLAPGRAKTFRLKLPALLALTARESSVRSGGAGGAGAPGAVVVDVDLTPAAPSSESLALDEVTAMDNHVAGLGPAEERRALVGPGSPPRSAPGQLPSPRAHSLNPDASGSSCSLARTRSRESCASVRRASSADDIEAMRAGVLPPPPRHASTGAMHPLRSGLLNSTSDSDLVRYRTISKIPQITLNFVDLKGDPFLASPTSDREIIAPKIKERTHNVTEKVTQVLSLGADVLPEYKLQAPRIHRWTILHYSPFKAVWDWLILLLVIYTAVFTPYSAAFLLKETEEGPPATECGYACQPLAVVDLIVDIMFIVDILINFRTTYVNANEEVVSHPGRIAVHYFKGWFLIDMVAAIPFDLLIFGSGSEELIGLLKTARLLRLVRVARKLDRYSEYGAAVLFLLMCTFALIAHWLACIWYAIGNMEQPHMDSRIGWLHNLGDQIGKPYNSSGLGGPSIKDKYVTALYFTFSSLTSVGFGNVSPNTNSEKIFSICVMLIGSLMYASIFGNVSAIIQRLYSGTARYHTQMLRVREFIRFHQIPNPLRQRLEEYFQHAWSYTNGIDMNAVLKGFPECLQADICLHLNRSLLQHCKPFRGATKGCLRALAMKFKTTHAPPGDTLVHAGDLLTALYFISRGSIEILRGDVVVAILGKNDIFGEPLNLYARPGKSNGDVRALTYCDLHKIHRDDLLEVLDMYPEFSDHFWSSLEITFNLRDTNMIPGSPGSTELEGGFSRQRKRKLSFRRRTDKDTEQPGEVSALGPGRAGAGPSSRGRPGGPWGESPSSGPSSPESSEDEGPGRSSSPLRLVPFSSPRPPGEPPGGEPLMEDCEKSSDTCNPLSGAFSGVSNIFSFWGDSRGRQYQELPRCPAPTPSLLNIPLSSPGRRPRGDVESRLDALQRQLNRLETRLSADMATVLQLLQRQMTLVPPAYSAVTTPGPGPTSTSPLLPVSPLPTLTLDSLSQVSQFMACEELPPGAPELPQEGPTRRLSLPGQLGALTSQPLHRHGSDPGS

`O=C(O)CSc1cc(C(=O)c2ccccc2O)cn2c(=O)c3c4c(sc3nc12)CCCC4`: the IC50 on Aminopeptidase N is 19.5 µM (active); in assay [1], 19 µM (active); in [2], 7.42 µM (active); in [3], > 158 µM (not active); in assay [4] it was 2.62 µM (active); in [5] it was 13.5 µM (active). For the same compound, the IC50 in assay [6] is 0.576 µM (active); in [7], > 99 µM (inactive); at Genome polyprotein it was 94.1 µM (active); in [8] it was 14.1 µM (active). Moreover, in assay [9], the AC50 was 5.07 µM (active).

`CCOc1ccc(/C=C2\SC(=S)N(CCC(=O)O)C2=O)cc1`: the values for the IC50 (in the assay with Jurkat; in [10]) were < 0.16 µM (active) and > 80 µM (inactive), respectively. The AC50 in [11] is 0.577 µM (active); with A-375 [12], > 35 µM (active); in the assay on A-375 [13], > 35 µM (active).

For `Cc1ccccc1Cn1c(O)c(N=NC(S)=Nc2ccccc2F)c2ccccc21`, the EC50 in assay [14] was 0.87 µM (active); in [15], > 92.5 µM (inactive); on Mu-type opioid receptor it was > 92.5 µM (inactive); in assay [16] it was > 92.5 µM (inactive). In the assay with HEK293, the AC50 was 3.18 µM (active).
